± gives the expanded uncertainty stated by the source.
Test: xn = mol fraction of the nth substance listed
Settings: 92 K, Liquid, Buoyancy - hydrostatic balance with magnetic suspension - one sinker

Row | mass density (138.3 kPa, x1 = 0.967) | mass density (1039.4 kPa, x1 = 0.952) | mass density (159.1 kPa, x2 = 0.884) | Compound
1 | 650.5 ± 1.2 kg/m3 | 651.3 ± 0.9 kg/m3 |  | CC [ethane] + N#N
2 |  |  | 451 ± 0.7 kg/m3 | N#N [nitrogen] + C
